Results taken from PubChem BioAssay (NCI).
Several values for one entry are separate records, joined by “and”; a condition that tells them apart may be missing. Identical values can stand only once.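 Dose response: 5 concentrations. Exposure: 48 h. Format: 96-well plates. Endpoint: linear interpolation; highest concentration if not reached. The concentration for 50% growth inhibition is given as GI50. At the TGI there is no net growth.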

Key:
Test in all cases: NCI anticancer screen, dose series, 48 h
SW-620 colon = system: SW-620 colon
OVCAR-8 ovarian = system: OVCAR-8 ovarian
OVCAR-4 ovarian = system: OVCAR-4 ovarian
BT-549 breast = system: BT-549 breast
HOP-62 NSCLC = system: HOP-62 NSCLC
SF-539 CNS = system: SF-539 CNS
SN12C renal = system: SN12C renal
MOLT-4 leukemia = system: MOLT-4 leukemia
SK-MEL-28 melanoma = system: SK-MEL-28 melanoma
NCI/ADR-RES ovarian = system: NCI/ADR-RES ovarian

| SMILES | TGI (SW-620 colon) | TGI (OVCAR-8 ovarian) | TGI (OVCAR-4 ovarian) | TGI (BT-549 breast) | TGI (HOP-62 NSCLC) | TGI (SF-539 CNS) | TGI (SN12C renal) | TGI (MOLT-4 leukemia) | TGI (SK-MEL-28 melanoma) | TGI (NCI/ADR-RES ovarian) | GI50 (SW-620 colon) | GI50 (OVCAR-8 ovarian) | GI50 (OVCAR-4 ovarian) | GI50 (BT-549 breast) | GI50 (HOP-62 NSCLC) | GI50 (SF-539 CNS) | GI50 (SN12C renal) | GI50 (MOLT-4 leukemia) | GI50 (SK-MEL-28 melanoma) | GI50 (NCI/ADR-RES ovarian) |
| --- | --- | --- | --- | --- | --- | --- | --- | --- | --- | --- | --- | --- | --- | --- | --- | --- | --- | --- | --- | --- |
| CN1CN(c2ccccc2)C2(CCN(CCCSc3ccccc3NC(=O)/C=C/c3ccccc3)CC2)C1=O | 26.3 µM | 32.6 µM | > 37 µM | 12 µM | 5.8 µM | 6.45 µM | 15.1 µM | 7 µM | 6.09 µM | 22.4 µM | – | – | – | – | – | – | – | – | – | – |
| CN(NC(=O)CCCl)C1=NCCN1 | > 100 µM | > 100 µM | > 100 µM | > 100 µM | > 100 µM | > 100 µM | > 100 µM | > 100 µM | > 100 µM | > 100 µM | – | – | – | – | – | – | – | – | – | – |
| CC1(C2(C)OC(=O)c3ccccc32)OC(=O)c2ccccc21 (stereo unspecified) | > 100 µM | > 100 µM | > 100 µM | > 100 µM | > 100 µM | > 100 µM | > 100 µM | > 100 µM | > 100 µM | > 100 µM | – | – | – | – | – | – | – | – | – | – |
| Cc1c(CCOC=O)c(=O)[nH]c2nncn12 | > 100 µM | > 100 µM | > 100 µM | > 100 µM | > 100 µM | > 100 µM | > 100 µM | > 100 µM | > 100 µM | > 100 µM | – | – | – | – | – | – | – | – | – | – |
| C[C@]12CC[C@@H]3c4cc(OCC(F)(F)F)c(O)cc4C(=O)C[C@H]3[C@@H]1CC[C@@H]2O | > 100 µM | > 84.7 µM | > 100 µM | > 100 µM | > 100 µM | 22.6 µM | > 100 µM | > 100 µM | > 52.3 µM | > 31.3 µM | – | – | – | – | – | – | – | – | – | – |
| O=P(Oc1ccccc1)(Oc1ccccc1)Oc1c[nH]c2ccccc12 | 36 µM | 47.5 µM | 14.5 µM | 34.4 µM | 36.3 µM | 24 µM | 26 µM | 46.6 µM | 26.6 µM | 18 µM | – | – | – | – | – | – | – | – | – | – |
| CC1=C2c3c(C)ccc4ccc(C)c(c34)C2(O)C(C)C1=O (stereo unspecified) | > 100 µM | 49.4 µM | > 100 µM | 57.4 µM | > 100 µM | > 100 µM | > 100 µM | > 100 µM | > 100 µM | 76 µM | – | – | – | – | – | – | – | – | – | – |
| COc1ccc(-c2csc(=Nc3ccccc3)n2CC(O)c2ccc([N+](=O)[O-])cc2)cc1 (stereo unspecified) | > 100 µM | > 100 µM | > 100 µM | > 100 µM | > 100 µM | > 100 µM | > 100 µM | > 100 µM | > 100 µM | > 100 µM | – | – | – | – | – | – | – | – | – | – |
| CCCc1c(OC)c(=O)c2c(OC)cc(OC)c3c4c(OC)cc(OC)c5c(=O)c(OC)c(CCC)c(c1c23)c54 | 33.7 µM | 40.8 µM | 28.4 µM | 31.4 µM | 33 µM | 30.9 µM | 50.4 µM | 35 µM | 26.2 µM | 47.4 µM | – | – | – | – | – | – | – | – | – | – |
| CCCCCCOc1ccc(C(=O)NOCc2ccccc2)cc1 | > 100 µM | > 100 µM | > 100 µM | > 100 µM | > 100 µM | > 100 µM | > 100 µM | > 100 µM | > 100 µM | > 100 µM | – | – | – | – | – | – | – | – | – | – |
| COCC1CCCN1c1ccc(/C=C(/C#N)C(N)=S)cc1 (stereo unspecified) | > 100 µM | > 100 µM | > 100 µM | > 100 µM | > 100 µM | > 100 µM | > 100 µM | > 100 µM | > 100 µM | > 100 µM | 79.4 µM | > 100 µM | > 100 µM | > 100 µM | > 100 µM | > 100 µM | 30.5 µM | > 100 µM | > 100 µM | > 100 µM |
| CCCCn1c(C)c(C(=O)OCC)s/c1=N/Nc1nc2ccccc2nc1-c1ccccc1 | > 100 µM | > 100 µM | > 100 µM | > 100 µM | 83.5 µM | > 100 µM | > 100 µM | > 100 µM | > 100 µM | > 100 µM | – | – | – | – | – | – | – | – | – | – |
| CC(C)C1(C)N=C(C(F)(F)F)c2cc(C(=O)C(F)(F)F)c3ccccc3c2N1 (stereo unspecified) | > 51.6 µM | 17.6 µM | 18.9 µM | 10.7 µM | 18.5 µM | 20.8 µM | 11 µM | 18.1 µM | 20.8 µM | 9.09 µM | – | – | – | – | – | – | – | – | – | – |
| CC(C)NC(=O)CN1CCN(C2=CC(=O)c3c(O)ccc(O)c3C2=O)CC1 | 14.4 µM | > 54 µM | 20.3 µM | 32.1 µM | 32.3 µM | 30.5 µM | 29.1 µM | > 100 µM | 31.6 µM | 25.5 µM | – | – | – | – | – | – | – | – | – | – |
| O=C1C(CN2CCCCC2)CCCC1CN1CCCCC1 (stereo unspecified) | 24.6 µM and 13.7 µM | 21 µM and 39.3 µM | 22.2 µM | 30.9 µM | > 100 µM | > 57.5 µM and 47.8 µM | > 31.6 µM and 48.7 µM | > 65.6 µM and 12 µM | 18.4 µM and 31.7 µM | 55.9 µM | – | – | – | – | – | – | – | 10.9 µM and 4.27 µM | – | – |
| S=C(N/N=C(/c1ccccc1)c1ccccn1)Nc1ccccc1Cl | 14.8 µM | 4.98 µM | 18.2 µM | 17.3 µM | 16.6 µM | 6.59 µM | 14.9 µM | 1.02 µM | 19.1 µM | 5.18 µM | – | – | – | – | – | – | – | – | – | – |
